Assay results published in ChEMBL document CHEMBL1201862, “PubChem BioAssay data set” (2004).
Activity calls are given as the source filed them.

How the values were obtained:
Paired box protein Pax-8 = Paired box protein Pax-8 (Homo sapiens, UniProt Q06710); experiment: PAX8 transcriptional activity inhibition in RMG-I – RMG-I cells, luciferase, cherry-pick, dose response (AID 687027); assay type: functional, cell-based;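 further: luciferase reporter driven by Pax8 target thyroperoxidase promoter measured by SteadyGlo luminescence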
Sequence of Paired box protein Pax-8 (Q06710 whole entry, the tested form may be a part): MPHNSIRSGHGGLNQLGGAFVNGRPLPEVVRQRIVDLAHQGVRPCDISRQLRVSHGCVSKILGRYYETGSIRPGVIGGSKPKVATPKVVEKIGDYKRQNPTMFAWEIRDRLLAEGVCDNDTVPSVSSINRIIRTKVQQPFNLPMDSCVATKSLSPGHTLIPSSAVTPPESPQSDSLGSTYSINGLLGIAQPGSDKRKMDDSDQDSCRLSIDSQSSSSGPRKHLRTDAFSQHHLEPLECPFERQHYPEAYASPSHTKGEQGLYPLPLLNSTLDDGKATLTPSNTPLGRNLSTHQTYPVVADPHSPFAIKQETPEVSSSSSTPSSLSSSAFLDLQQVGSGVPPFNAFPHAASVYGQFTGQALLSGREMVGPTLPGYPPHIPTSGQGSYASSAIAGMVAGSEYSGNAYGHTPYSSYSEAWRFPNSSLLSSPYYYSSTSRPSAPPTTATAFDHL

[1] = off-target signal loss in HeLa-CEM21 co-culture – HeLa F-luc CTL cells, cherry-picked, counter-screen for HIV-1 Env fusion inhibitor project, dose response (AID 652040); assay type: functional, cell-based;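 further: potency for signal decrease marking cytotoxic or nonspecific inhibition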
[2] = blockers of HIV-1 envelope-mediated cell-cell fusion – cherry-pick, dose response (AID 652057); assay type: functional, cell-based
[3] = blockers of HIV-1 ZM109 envelope-driven cell-cell fusion – HeLa effector, CEM target cells, luciferase, cherry-pick, dose response (AID 652058); assay type: functional, cell-based;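 further: luciferase signal from HIV-1 Env mediated cell-cell fusion of effector and target cells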
[4] = HIV-1 AD8 envelope cell-cell fusion blockers – cherry-pick, dose response (AID 652062); assay type: functional, cell-based;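 further: luciferase signal from cell-cell fusion driven by HIV-1 clade B AD8 Env; potency is for inhibitors of fusion seen as a drop in luminescence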
[5] = target: T1, Short transient receptor potential channel 4 (Mus musculus, UniProt Q9QUQ5); experiment: block of DAMGO-driven TRPC4 calcium entry – cell-based, HEK293 TRPC4/mu-opioid, Fluo-4 calcium, dose response (AID 434942); assay type: functional;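 further: potency of inhibitors blocking the TRPC4 calcium response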
T1 sequence (Q9QUQ5 whole entry): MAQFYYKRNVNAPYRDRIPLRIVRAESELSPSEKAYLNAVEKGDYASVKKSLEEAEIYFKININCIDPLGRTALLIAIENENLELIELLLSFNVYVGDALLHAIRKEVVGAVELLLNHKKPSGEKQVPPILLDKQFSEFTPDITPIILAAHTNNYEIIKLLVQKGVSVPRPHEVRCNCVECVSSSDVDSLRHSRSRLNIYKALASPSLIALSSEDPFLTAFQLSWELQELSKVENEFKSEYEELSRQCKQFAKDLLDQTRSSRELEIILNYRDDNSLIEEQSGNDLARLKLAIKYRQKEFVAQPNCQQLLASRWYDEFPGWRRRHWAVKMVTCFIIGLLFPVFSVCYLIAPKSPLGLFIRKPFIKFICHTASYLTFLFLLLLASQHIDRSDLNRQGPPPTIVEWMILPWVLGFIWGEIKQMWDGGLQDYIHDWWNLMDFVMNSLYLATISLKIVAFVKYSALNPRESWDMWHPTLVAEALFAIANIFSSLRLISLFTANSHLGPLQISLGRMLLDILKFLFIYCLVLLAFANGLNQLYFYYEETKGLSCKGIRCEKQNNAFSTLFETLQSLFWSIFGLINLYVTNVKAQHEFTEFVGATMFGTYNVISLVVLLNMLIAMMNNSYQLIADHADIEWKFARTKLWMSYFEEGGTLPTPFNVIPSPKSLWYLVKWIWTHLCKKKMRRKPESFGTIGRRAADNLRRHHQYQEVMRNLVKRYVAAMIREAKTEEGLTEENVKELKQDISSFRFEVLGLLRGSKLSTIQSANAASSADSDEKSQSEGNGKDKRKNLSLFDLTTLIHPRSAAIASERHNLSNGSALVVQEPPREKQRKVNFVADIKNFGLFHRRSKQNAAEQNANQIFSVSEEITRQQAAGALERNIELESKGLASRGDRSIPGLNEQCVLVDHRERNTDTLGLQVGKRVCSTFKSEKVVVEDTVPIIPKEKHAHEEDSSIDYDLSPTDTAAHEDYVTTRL

BJ [6] = experiment: cells; assay type: functional, cell-based; conditions: Homo sapiens
[7] = DRD fibroblast viability loss – cell-based, non-viral oncogenic, luminescence, dose response (AID 1934); assay type: functional; conditions: Homo sapiens
BJ [8] = experiment: BJ-TERT fibroblast viability loss – cell-based, RAS-independent, luminescence, dose response (AID 1933); assay type: functional; conditions: Homo sapiens
BJ [9] = experiment: BJ-TERT-LT-ST fibroblast viability loss – cell-based, RAS-independent, luminescence, dose response (AID 1935); assay type: functional; conditions: Homo sapiens;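 further: BJ fibroblasts immortalized with TERT plus LT and ST oncogenes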
[10] = intracellular Trypanosoma cruzi inhibitors in host cells – cell-based, plate reader, cherry-pick samples, set 3, dose response (AID 651818); assay type: functional;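 further: compounds incubated with infected cells for about four days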
Coagulation factor XII = target: T2, Coagulation factor XII (Homo sapiens, UniProt P00748); assay type: functional;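 further: activated factor XIIa alpha cleaving a fluorogenic AMC peptide substrate; inhibitor potency from loss of enzyme activity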
T2 sequence (P00748 whole entry): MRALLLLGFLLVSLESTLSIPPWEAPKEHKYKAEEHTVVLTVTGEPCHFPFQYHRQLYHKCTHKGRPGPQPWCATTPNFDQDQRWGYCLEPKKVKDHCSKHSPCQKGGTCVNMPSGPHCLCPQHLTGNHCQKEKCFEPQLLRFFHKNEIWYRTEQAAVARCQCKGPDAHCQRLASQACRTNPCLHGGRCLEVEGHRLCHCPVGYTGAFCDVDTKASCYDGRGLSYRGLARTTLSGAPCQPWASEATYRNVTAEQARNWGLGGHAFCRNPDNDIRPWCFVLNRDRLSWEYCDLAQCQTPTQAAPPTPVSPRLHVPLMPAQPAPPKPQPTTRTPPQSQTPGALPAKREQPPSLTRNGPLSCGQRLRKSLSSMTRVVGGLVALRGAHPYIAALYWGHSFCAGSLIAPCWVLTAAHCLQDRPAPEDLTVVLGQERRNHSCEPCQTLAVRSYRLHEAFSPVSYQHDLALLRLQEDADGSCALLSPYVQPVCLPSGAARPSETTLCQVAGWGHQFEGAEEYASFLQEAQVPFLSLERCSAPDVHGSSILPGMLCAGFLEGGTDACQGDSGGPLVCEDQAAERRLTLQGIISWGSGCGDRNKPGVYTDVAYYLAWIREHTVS

[11] = target: Peroxisome proliferator-activated receptor gamma/Nuclear receptor coactivator 1 (Homo sapiens, UniProt P37231); assay type: functional;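 further: agonist potency as compounds enhance coactivator SRC-1 recruitment to PPARgamma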
Sequence of Peroxisome proliferator-activated receptor gamma/Nuclear receptor coactivator 1 (P37231 whole entry): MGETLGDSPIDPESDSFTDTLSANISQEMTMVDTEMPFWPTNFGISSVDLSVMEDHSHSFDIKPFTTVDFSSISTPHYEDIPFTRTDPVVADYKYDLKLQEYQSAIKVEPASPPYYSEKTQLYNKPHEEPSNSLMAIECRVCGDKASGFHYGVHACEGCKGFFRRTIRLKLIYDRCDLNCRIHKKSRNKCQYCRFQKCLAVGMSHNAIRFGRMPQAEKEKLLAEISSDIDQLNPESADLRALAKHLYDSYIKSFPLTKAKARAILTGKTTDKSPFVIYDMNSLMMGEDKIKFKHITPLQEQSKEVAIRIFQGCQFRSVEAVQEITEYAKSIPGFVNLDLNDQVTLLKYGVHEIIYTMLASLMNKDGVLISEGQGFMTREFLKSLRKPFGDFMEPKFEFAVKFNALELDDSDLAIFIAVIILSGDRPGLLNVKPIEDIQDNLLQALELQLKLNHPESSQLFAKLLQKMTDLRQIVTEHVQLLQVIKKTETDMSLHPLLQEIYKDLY
Sequence of Peroxisome proliferator-activated receptor gamma/Nuclear receptor coactivator 1 (Q15788 whole entry, further chain): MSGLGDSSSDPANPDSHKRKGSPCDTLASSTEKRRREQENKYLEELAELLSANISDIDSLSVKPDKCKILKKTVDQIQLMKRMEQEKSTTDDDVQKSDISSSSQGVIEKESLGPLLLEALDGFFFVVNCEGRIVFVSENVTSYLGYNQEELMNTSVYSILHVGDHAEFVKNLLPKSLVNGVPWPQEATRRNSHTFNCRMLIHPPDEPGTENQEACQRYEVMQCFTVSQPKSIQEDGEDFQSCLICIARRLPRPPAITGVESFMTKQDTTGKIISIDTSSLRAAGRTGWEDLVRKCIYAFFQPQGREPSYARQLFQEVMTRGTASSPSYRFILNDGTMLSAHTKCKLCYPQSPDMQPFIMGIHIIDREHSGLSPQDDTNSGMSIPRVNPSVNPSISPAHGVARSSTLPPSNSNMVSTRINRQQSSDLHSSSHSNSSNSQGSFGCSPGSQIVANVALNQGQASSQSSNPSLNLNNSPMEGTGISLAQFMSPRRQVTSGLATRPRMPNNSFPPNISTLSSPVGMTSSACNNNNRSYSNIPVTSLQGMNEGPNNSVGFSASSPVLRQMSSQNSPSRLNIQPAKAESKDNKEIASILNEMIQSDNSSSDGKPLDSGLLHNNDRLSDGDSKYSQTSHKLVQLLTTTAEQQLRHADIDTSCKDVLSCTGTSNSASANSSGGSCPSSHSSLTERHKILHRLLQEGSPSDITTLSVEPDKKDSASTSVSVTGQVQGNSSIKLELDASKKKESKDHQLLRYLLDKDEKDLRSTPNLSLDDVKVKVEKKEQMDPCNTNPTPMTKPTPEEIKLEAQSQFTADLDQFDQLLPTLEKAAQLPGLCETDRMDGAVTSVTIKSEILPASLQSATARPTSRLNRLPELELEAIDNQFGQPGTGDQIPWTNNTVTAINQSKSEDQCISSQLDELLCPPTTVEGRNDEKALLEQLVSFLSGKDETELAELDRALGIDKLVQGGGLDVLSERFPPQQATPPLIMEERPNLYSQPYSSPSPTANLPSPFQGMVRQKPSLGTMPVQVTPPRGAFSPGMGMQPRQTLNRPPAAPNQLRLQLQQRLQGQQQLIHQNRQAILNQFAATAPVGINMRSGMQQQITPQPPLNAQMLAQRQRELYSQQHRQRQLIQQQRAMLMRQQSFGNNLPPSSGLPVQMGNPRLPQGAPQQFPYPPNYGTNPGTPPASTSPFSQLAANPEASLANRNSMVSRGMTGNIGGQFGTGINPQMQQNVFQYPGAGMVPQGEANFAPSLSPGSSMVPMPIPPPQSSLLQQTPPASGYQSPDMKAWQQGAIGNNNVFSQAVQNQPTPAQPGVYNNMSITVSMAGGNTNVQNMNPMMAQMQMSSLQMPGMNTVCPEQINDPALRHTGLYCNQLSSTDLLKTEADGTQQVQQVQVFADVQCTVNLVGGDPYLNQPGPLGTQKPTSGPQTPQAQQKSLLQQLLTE

[12] = target: Peroxisome proliferator-activated receptor gamma/Nuclear receptor coactivator 2 (Homo sapiens, UniProt P37231); assay type: functional;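 further: agonist potency for raising coactivator recruitment to the receptor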
Sequence of Peroxisome proliferator-activated receptor gamma/Nuclear receptor coactivator 2 (P37231 whole entry): as the sequence (P37231 whole entry) above
Sequence of Peroxisome proliferator-activated receptor gamma/Nuclear receptor coactivator 2 (Q15596 whole entry, further chain): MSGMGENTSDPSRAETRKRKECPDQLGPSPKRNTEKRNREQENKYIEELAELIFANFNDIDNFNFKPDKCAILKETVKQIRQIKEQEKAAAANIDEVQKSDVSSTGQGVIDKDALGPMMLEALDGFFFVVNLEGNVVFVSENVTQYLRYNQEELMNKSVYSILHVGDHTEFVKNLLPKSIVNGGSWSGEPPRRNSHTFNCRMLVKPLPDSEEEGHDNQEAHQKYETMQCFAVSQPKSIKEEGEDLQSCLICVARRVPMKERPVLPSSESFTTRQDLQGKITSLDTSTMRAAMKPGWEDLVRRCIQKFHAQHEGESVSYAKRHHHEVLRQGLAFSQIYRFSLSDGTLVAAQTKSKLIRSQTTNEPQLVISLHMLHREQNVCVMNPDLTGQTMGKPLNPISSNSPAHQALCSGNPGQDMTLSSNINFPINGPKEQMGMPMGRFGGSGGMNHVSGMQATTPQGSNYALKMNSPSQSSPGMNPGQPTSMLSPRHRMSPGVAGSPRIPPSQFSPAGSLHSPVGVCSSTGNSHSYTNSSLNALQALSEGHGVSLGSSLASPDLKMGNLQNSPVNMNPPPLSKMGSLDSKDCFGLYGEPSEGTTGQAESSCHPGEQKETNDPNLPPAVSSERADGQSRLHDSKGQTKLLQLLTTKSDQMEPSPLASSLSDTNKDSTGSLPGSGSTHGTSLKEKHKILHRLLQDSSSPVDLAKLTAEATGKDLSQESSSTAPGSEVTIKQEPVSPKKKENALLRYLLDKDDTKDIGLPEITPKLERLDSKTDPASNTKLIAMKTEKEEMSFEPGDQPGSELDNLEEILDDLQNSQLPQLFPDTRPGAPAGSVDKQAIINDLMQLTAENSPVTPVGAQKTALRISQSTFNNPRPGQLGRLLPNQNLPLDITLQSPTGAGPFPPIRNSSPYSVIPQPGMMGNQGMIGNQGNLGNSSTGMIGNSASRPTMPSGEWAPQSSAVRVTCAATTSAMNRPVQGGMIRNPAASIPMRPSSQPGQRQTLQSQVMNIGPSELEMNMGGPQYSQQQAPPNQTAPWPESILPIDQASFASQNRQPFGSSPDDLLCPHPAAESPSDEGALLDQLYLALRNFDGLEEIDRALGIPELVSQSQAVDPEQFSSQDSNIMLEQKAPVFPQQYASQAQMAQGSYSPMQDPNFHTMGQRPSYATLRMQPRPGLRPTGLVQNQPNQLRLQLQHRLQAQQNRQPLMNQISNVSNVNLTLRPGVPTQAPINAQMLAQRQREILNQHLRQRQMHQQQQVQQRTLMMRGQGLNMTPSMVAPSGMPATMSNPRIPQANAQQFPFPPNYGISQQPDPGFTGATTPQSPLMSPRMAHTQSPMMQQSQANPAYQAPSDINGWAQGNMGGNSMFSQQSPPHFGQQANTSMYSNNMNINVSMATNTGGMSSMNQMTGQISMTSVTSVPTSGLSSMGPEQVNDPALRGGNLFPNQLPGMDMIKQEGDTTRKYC

[13] = target: Peroxisome proliferator-activated receptor gamma/Nuclear receptor coactivator 3 (Homo sapiens, UniProt P37231); assay type: functional;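 further: agonist potency for raising coactivator recruitment to the receptor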
Protein skinhead-1 = target: T3, Protein skinhead-1 (Caenorhabditis elegans, UniProt P34707); assay type: functional
T3 sequence (P34707 whole entry): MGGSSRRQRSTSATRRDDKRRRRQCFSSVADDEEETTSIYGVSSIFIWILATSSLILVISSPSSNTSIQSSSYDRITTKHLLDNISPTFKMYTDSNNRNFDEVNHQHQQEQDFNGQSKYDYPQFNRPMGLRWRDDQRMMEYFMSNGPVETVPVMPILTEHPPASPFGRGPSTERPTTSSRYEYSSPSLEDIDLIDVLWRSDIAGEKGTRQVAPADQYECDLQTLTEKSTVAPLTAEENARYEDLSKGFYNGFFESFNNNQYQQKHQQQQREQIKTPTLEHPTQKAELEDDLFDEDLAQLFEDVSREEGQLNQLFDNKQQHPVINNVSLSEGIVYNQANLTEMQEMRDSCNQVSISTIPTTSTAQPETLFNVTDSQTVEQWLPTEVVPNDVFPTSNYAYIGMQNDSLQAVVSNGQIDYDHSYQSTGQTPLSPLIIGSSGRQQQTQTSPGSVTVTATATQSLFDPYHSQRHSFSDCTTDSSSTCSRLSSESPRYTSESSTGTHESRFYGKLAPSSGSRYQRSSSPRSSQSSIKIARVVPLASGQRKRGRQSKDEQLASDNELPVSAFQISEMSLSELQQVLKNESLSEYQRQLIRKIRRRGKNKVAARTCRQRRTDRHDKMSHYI

[14] = Luminescence Cell-Based Dose Response HTS to Identify Activators of Luciferase Translation or Activity in H4 […] Cells. [Related pubchem assays: 1829 (Project Summary), 1814 (Primary HTS)]; assay type: functional
H4 = experiment: Luminescence Cell-Based Dose Response HTS to Identify Activators of 5'UTR Stem-Loop Driven Prion Protein mRNA Translation in H4 Neuroglioblastoma Cells. [Related pubchem assays: 1829 (Project Summary), 1814 (Primary HTS)]; assay type: functional; conditions: Homo sapiens
Cytochrome P450 3A4 = Cytochrome P450 3A4 (Homo sapiens, UniProt P08684);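 further: CYP3A4 tested as one member of a cytochrome P450 panel screen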
Sequence of Cytochrome P450 3A4 (P08684 whole entry): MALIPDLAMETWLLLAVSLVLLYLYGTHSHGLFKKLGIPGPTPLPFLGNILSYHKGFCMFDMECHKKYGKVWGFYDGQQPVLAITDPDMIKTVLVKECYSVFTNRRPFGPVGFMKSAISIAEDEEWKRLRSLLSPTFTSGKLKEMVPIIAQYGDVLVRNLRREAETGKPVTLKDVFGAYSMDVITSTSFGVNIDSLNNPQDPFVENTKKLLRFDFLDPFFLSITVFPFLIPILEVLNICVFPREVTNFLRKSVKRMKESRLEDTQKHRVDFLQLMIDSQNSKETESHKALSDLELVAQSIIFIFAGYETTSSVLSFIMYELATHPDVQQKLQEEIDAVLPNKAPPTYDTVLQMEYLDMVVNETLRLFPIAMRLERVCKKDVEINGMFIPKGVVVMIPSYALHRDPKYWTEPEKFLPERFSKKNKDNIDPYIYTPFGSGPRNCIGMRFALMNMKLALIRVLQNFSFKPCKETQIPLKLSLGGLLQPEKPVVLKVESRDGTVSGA

## Cc1cccc(S(=O)(=O)N2CC[C@@H]3[C@H](CO)Nc4ccc(C5=CCCCC5)cc4[C@@H]32)c1
Paired box protein Pax-8
  AC50: 10.9 µM (active)

## CC(C)(C)n1nnnc1C(c1cccs1)N(Cc1cccnc1)Cc1ccco1 (stereo unspecified)
[1]
  AC50: 15.2 µM (active)
[2]
  AC50: 3.99 µM (active)
[3]
  AC50: 4.74 µM (active)
[4]
  AC50: 7.08 µM (active)

## COc1cccc(C2=NN(C(=O)c3ccco3)C(c3ccco3)C2)c1 (stereo unspecified)
[5]
  EC50: 1.88 µM (active)

## O=C(c1ccccc1)c1cc([N+](=O)[O-])ccc1N1CCCC1
BJ [6]
  EC50: > 150 µM (not active)
[7]
  EC50: > 150 µM (not active)
BJ [8]
  EC50: > 150 µM (not active)
BJ [9]
  EC50: > 150 µM (not active)

## C[C@@H]1CCCCO[C@H](CN(C)Cc2ccncc2)[C@H](C)CN([C@@H](C)CO)C(=O)c2cc(NC(=O)Nc3ccc(C(F)(F)F)cc3)ccc2O1
Paired box protein Pax-8
  AC50: 13.6 µM (active)

## COc1ccc(C(=O)c2cc([N+](=O)[O-])ccc2N2CCCC2)cc1
BJ [6]
  EC50: 58.2 µM (active)
[7]
  EC50: 3.06 µM (active)
BJ [8]
  EC50: 13 µM (active)
BJ [9]
  EC50: 3.87 µM (inconclusive)

## C[C@@H]1CCCCO[C@@H](CN(C)Cc2ccc(C(F)(F)F)cc2)[C@@H](C)CN([C@H](C)CO)C(=O)c2cc(NC(=O)Nc3ccc(F)cc3)ccc2O1
[10]
  AC50: 6.87 µM (active)

## Cc1nc2ccccc2n1CCOc1ccc(F)cc1
[5]
  EC50: 0.376 µM (active)

## COc1ccc(Cl)cc1N=C(S)NNC(=O)C1(C)CC1(Cl)Cl (stereo unspecified)
Coagulation factor XII
  IC50: > 50 µM (inactive)

## Nc1nc(C2CCCN2S(=O)(=O)c2ccc(Cl)cc2)cs1 (stereo unspecified)
[11]
  EC50: > 79.4 µM (not active)
[12]
  EC50: > 79.4 µM (not active)
[13]
  EC50: > 79.4 µM (not active)

## CCCn1c(=S)[nH]c2cc(C(=O)N3CCCC(C(=O)OCC)C3)ccc2c1=O (stereo unspecified)
[1]
  AC50: > 70 µM (inactive)
[4]
  AC50: 23.2 µM (active)

## COC(=O)c1cccc(NC(=O)CSc2nnc[nH]2)c1
Coagulation factor XII
  IC50: > 50 µM (inactive)

## FCCCOc1ccc(-c2ccnc(-c3ccccc3)n2)cc1
Protein skinhead-1
  IC50: 52.3 µM (inactive)

## O=C(C[C@@H]1CC[C@@H]2[C@H](COC[C@H](O)CN2S(=O)(=O)c2cccc(Cl)c2)O1)Nc1ccc(-c2ccccc2)cc1
Paired box protein Pax-8
  AC50: 9.87 µM (active)

## Fc1cccc(CSc2ccc(-c3ccco3)nn2)c1
Protein skinhead-1
  IC50: > 100 µM (inactive)
[14]
  EC50: 49.2 µM (active)
H4
  EC50: 8.43 µM (active)

## C[C@H]1CN([C@@H](C)CO)C(=O)c2cc(NS(=O)(=O)c3ccc(F)cc3)ccc2O[C@H]1CN(C)S(=O)(=O)c1ccc(F)cc1
[3]
  AC50: 42.4 µM (active)

## Cc1ccc(-n2cccn2)c(CN2CCCC(C(=O)c3ccc4c(c3)OCO4)C2)c1 (stereo unspecified)
[5]
  EC50: 7.5 µM (active)

## CC(=O)Nc1cc(NC(C)=O)cc(C(=O)OCC(=O)N2CC(C)OC(C)C2)c1 (stereo unspecified)
Protein skinhead-1
  IC50: > 100 µM (inactive)

## CCOCCCn1cnc2c(c1=O)c1nc3ccccc3nc1n2-c1ccccc1
Coagulation factor XII
  IC50: > 50 µM (inactive)
Cytochrome P450 3A4
  AC50: 20 µM (inconclusive)

## O=C(COC(=O)C1CC1)Nc1nc(-c2ccc(F)c(F)c2)cs1
[5]
  EC50: 2.99 µM (active)

## O=C(Nc1ccc(F)cc1)C1CCCN1S(=O)(=O)c1ccc(Br)cc1 (stereo unspecified)
[1]
  AC50: 14.5 µM (active)
[2]
  AC50: 7.75 µM (active)
[3]
  AC50: 6.89 µM (active)
[4]
  AC50: 16.3 µM (active)

## COc1ccc(C2CC(=O)c3c([nH]c(C(=O)OC(C)C)c3C)C2)cc1OC (stereo unspecified)
[11]
  EC50: > 79.4 µM (not active)
[12]
  EC50: > 79.4 µM (not active)
[13]
  EC50: > 79.4 µM (not active)

## C[C@H]1CN([C@@H](C)CO)C(=O)c2cc(NC(=O)Nc3cccc4ccccc34)ccc2O[C@H]1CN(C)Cc1ccc(Cl)c(Cl)c1
[10]
  AC50: 5.7 µM (active)

## CCc1nnc(NC(=O)CCC(=O)N2CCN(CCOc3ccc(C)cc3)CC2)s1
Coagulation factor XII
  IC50: > 50 µM (inactive)

## Clc1ccc(CSc2ccc(-c3cccnc3)nn2)cc1
Protein skinhead-1
  IC50: 83.9 µM (inactive)

## CCCC(=O)NNC(=O)c1ccoc1C
Coagulation factor XII
  IC50: > 50 µM (inactive)

## COc1cccc2cc(C(N)=O)/c(=N\NC(=O)c3ccccc3)oc12
[5]
  EC50: 0.188 µM (active)

## O=C1c2cccnc2C(Nc2ccc(S(=O)(=O)N3CCCCC3)cc2)N1Cc1ccccc1 (stereo unspecified)
[1]
  AC50: 58.9 µM (active)
[2]
  AC50: 7.23 µM (active)

## COc1ccc(CN(Cc2ccc(OC)cc2)C(=O)c2cccs2)cc1
Coagulation factor XII
  IC50: > 50 µM (inactive)

## CCc1nnc(NC(=O)CSc2ncnc3c2oc2ccccc23)s1
[11]
  EC50: 22.6 µM (not active)
[12]
  EC50: 18.3 µM (not active)
[13]
  EC50: 23.5 µM (not active)

## CCOC(=O)c1s/c(=N\C(=O)c2ccc(OC(C)C)cc2)n(C)c1C
[11]
  EC50: 18.3 µM (not active)
[12]
  EC50: 16.2 µM (not active)
[13]
  EC50: 20.3 µM (not active)
